The values that follow are results of earlier work, collected in patent US20120220783A1, “SALTS OF SUNITINIB” (RANBAXY LABORATORIES LIMITED, priority 2009, published 2012).

For the data set the following is noted: crystalline form, statement of WO 2009/104021.

Each structure is given as a SMILES string.

In the case of `CCN(CC)CCNC(=O)c1c(C)[nH]c(/C=C2\C(=O)Nc3ccc(F)cc32)c1C.O=C(O)C[C@H](O)C(=O)O` [Form II of sunitinib L-malate, butanedioic acid, hydroxy-, (2S)-, compound with N-[2-(diethylamino)ethyl]-5-[(Z)-(5-fluoro-1,2-dihydro-2-oxo-3H-indol-3-ylidine)methyl]-2,4-dimethyl-1H-pyrrole-3-carboxamide (1:1)], the hygroscopicity result was “hygroscopic”. In addition, the “thermodynamic stability / form conversion” value (appears to readily convert to Form I) is listed as “thermodynamically unstable”.
